Values joined by “and” are separate entries in the source; they are usually repeats but may differ in a detail not shown here. Equal entries are not always repeated.
Tests used:
PPM1D1–420 [1] = target: T1, PPM1D1–420 (Homo sapiens, UniProt O15297); assay: Sedimentation velocity analytical ultracentrifugation (SV-AUC); settings: PPM1D1–420 15 µM with 3x compound, 2% DMSO
T1 construct: PPM1D1–420 was PCR-amplified from the synthesized gene with BsaI sites; His(6)-SUMO (N, cleaved yes); made in house; host or cells: E. coli BL21 (DE3)
T1 sequence (O15297 1-420): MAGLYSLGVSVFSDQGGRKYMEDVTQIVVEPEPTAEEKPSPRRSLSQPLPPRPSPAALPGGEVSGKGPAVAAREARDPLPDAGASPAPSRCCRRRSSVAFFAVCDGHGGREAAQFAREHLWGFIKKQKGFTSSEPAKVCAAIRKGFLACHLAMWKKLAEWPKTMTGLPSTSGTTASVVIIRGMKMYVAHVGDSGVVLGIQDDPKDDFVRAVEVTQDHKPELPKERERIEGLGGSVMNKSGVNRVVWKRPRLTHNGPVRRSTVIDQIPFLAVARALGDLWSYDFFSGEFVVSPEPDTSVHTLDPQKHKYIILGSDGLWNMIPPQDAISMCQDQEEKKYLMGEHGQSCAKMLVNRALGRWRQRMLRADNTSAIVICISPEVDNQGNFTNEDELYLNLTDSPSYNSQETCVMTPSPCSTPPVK
Method: AUC experiments were done using an Optima ultracentrifuge (Beckman Instruments). Proteins were dialyzed at 4 °C prior to each experiment in 20 mM HEPES (pH 7.4), 100 mM NaCl, 5 mM MgCl2, 0.1 mM TCEP. Sedimentation velocity (SV-AUC) experiments were conducted using an An50 Ti rotor at 50,000 rpm and 20 °C following temperature equilibration for 1 h prior to the start of the experiment. […] We, therefore, present these SV-AUC data as relative sedimenting populations with their experimentally observed S values. Absorbance data were collected at 280 nm. SedFIT was used to model the sedimentation coefficient distributions [c(s) analysis] for each experiment[38],[39]. Data were then refined using the c(s) with a conformational change model to better estimate the relative populations observed for PPM1D1–420. SedNTerp was used to calculate protein parameters. Images were generated using GUSSI[41].

PPM1DΔhinge = target: T2, PPM1DΔhinge (Homo sapiens, UniProt O15297, DEL155-163/G166S/M164G/T165G); assay: FDP (fluorescein diphosphate) enzymatic assay; type: biochemical; settings: for FDP Assay, signal relative to 0 nM GSK (=100): PPM1DΔHinge, individual runs, listed as GSK
T2 construct: PPM1D1–154-GGS-167–420 (PPM1D∆hinge); His(6)-SUMO (N, cleaved yes); made in house; host or cells: E. coli BL21 (DE3)
T2 sequence (O15297 with tags, fused parts or gaps DEL155-163/M164G/T165G/G166S): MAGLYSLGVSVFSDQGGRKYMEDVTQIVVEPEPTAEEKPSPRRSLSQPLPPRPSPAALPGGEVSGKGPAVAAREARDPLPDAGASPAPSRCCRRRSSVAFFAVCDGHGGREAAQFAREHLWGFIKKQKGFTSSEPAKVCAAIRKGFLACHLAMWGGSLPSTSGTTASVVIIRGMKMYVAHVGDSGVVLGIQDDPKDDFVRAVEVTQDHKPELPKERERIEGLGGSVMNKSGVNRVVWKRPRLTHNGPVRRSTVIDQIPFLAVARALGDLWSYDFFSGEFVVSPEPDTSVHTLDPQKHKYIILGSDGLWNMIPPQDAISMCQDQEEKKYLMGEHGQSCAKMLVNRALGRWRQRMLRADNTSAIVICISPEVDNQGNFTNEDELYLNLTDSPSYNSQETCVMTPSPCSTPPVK
Method: The FDP assay was adapted from reported protocol with minor modifications. Fluorescein diphosphate tetra-ammonium salt (CAS 217305-49-2) was purchased from AAT Bioquest (Cat No.11600). The assay was carried out on a 384-well plate (Corning Cat No.3575) with assay buffer containing 50 mM Tris (pH 7.5), 50 mM NaCl, 30 mM MgCl2, 0.01% tween 20, and 2% DMSO. Reactions were initiated with the addition of FDP to a solution containing wild-type PPM1D or one of its variants, to a final concentration of 5 nM for PPM1D and 100 μM for FDP (or as indicated in Kcat/KM measurements). A fluorescent signal was detected on a Spectramax microplate reader (485/530 nm) for the next 15 min at room temperature with an interval for data collection of 45 s. For the IC50 measurement, the compound was pre-incubated with PPM1D for 1 h before addition of the substrate.

PPM1D1–420 [2] = target: T1, PPM1D1–420; assay: Isothermal titration calorimetry (ITC); type: binding; parameters: DH / DS: unit not given here; settings: Fig 3F
Method: Assessments of the analog of GSK2830371 (analog 1d) binding to wild-type and mutant proteins were conducted using an Auto-iTC200 microcalorimeter (Malvern) (see section on synthesis of analog 1d below). The protein was dialyzed extensively into 25 mM HEPES (pH 7.4), 150 mM NaCl, 10 mM MgCl2 and 1 mM TCEP. The dialyzed protein was used to prepare fresh working solutions of protein (20 µM) and analog 1d (200 µM) in 2% DMSO (v/v) in the same buffer. Titrations were performed at 25 °C and consisted of a single initial injection of 0.4 µL, followed by 19 injections of 2 µL of compound into a sample cell containing wild-type or mutant PPM1D, with an interval of 150 s between successive injections. The reference power and stirring speed were set at […] and 1000 RPM, respectively. Heat of dilution and mixing were obtained from injections of analog 1d into ITC buffer lacking protein and subtracted from the integrated data before curve fitting. Thermodynamic data were analyzed using Origin 7.0 software and fitted by non-linear regression to the model for a single binding site.

## Cc1ncc(Cl)cc1NCc1ccc(C(=O)N[C@@H](CC2CCCC2)C(=O)NC2CC2)s1 [GSK2830371]
PPM1D1–420 [1]
  sedimentation peak (SV-AUC) in presence of compound: 2.69 S
PPM1DΔhinge; PPM1DΔhinge versus PPM1D1–420
  increase of IC50 in FDP assay upon hinge deletion: 100 fold
PPM1DΔhinge; [GSK] 9.76562 nM
  FDP Assay, signal relative to 0 nM GSK (=100): 99.774 and 81.7509
PPM1DΔhinge; [GSK] 19.5312 nM
  FDP Assay, signal relative to 0 nM GSK (=100): 74.1093 and 82.0598
PPM1DΔhinge; [GSK] 39.0625 nM
  FDP Assay, signal relative to 0 nM GSK (=100): 92.7672 and 94.3849
PPM1DΔhinge; [GSK] 78.125 nM
  FDP Assay, signal relative to 0 nM GSK (=100): 88.4223 and 95.7187
PPM1DΔhinge; [GSK] 156.25 nM
  FDP Assay, signal relative to 0 nM GSK (=100): 86.3292 and 93.2128
PPM1DΔhinge; [GSK] 312.5 nM
  FDP Assay, signal relative to 0 nM GSK (=100): 78.7193 and 77.5806
PPM1DΔhinge; [GSK] 625 nM
  FDP Assay, signal relative to 0 nM GSK (=100): 74.7657 and 65.5885
PPM1DΔhinge; [GSK] 1250 nM
  FDP Assay, signal relative to 0 nM GSK (=100): 60.0936 and 55.4697
PPM1DΔhinge; [GSK] 2500 nM
  FDP Assay, signal relative to 0 nM GSK (=100): 47.8958 and 40.0931
PPM1DΔhinge; [GSK] 5000 nM
  FDP Assay, signal relative to 0 nM GSK (=100): 6.587 and 19.2353
PPM1DΔhinge; [GSK] 10000 nM
  FDP Assay, signal relative to 0 nM GSK (=100): 0.167 and 0.2855
PPM1D1–420 [2]; Average of 3 trials
  DH: -3090.67
  DS: 26.3
PPM1D1–420 [2]; individual trials
  DH: -2879 and -3158 and -3235
  DS: 27.7 and 25.8 and 25.4

From PMC9246869, “Allosteric inhibition of PPM1D serine/threonine phosphatase via an altered conformational state” (Nature Communications, 2022)
